Laboratory results published in patent US12304890B2, “R-type pyridyloxycarboxylic acid, salt and ester derivative thereof, and preparation method therefor, and herbicidal composition and application thereof” (Qingdao Kingagroot Chemical Compound Co., Ltd., priority 2018, dated 2025).

Key:
Type in all cases: in vivo
Echinochloa crusgalli = test: Post-emergence test experiment, Echinochloa crusgalli; settings: for inhibition at 200 g/ha / Echinochloa crusgalli, activity level (growth inhibition rate): 200 g a.i./ha, weed resistant to ALS inhibitor and ACCe herbicides; for Activity level (growth inhibition rate), Echinochloa crusgalli: 1000 g a.i./ha, 3 weeks in greenhouse, fresh weight inhibition
Outline: (§1)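 Test compounds dissolve in acetone, receive tween-80 and a methyl oleate emulsible concentrate synergist (1.5 liters per hectare), then are diluted in water and sprayed onto 2-3 leaf stage plants. After 3 weeks of greenhouse culture, fresh weight inhibition is determined.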

Digitaria sanguinalis = test: Post-emergence test experiment, Digitaria sanguinalis; settings: for inhibition at 200 g/ha / Digitaria sanguinalis, activity level (growth inhibition rate): 200 g a.i./ha, weed resistant to cyhalofop-butyl; for Activity level (growth inhibition rate), Digitaria sanguinalis: 1000 g a.i./ha, 3 weeks in greenhouse, fresh weight inhibition
Outline: as §1

rice = test: Post-emergence test experiment, rice (crop selectivity); settings: 3 weeks
Method: (§2) The above described growth inhibition rate is fresh weight inhibition rate.
(§3) Post-emergence test experiment: Monocotyledonous and dicotyledonous weed seeds and main crop seeds (i. e. wheat, corn, rice, soybean, cotton, oilseed, millet and sorghum.) were put into a plastic pot loaded with soil. Then covered with 0.5-2 cm soil, the seeds were allowed to grow in good greenhouse environment. The test plants were treated at 2-3 leaf stage 2 weeks after sowing. The test compounds of the invention were dissolved with acetone respectively, then added with tween-80, and using 1.5 liters per hectare of an emulsible concentrate of methyl oleate as a synergist, and diluted by certain amount of water to certain concentration. The solution was sprayed to the plants with a sprayer. Then the plants were cultured for 3 weeks in the greenhouse, and the experiment result of weed controlling effect was listed in tables 4-5.

[1] = system: Semen Euphorbiae Lathyridis; test: Post-emergence test experiment, Semen Euphorbiae Lathyridis; settings: for inhibition at 200 g/ha / Semen Euphorbiae Lathyridis, activity level (growth inhibition rate): 200 g a.i./ha, weed resistant to cyhalofop-butyl
Method: as §2, §3

[2] = system: Monocotyledonous and dicotyledonous weed seeds and main crop seeds; test: Post-emergence test experiment, other weeds and crops (Table 4, 1000 g a.i./ha); settings: 3 weeks in greenhouse, fresh weight inhibition
Outline: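 Growth inhibition is scored on fresh weight. Spray solutions were made in acetone with tween-80, diluted in water, plus 1.5 L/ha methyl oleate emulsible concentrate. Plants from greenhouse-grown weed and crop seeds were treated post-emergence at 2-3 leaves, 2 weeks after sowing.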

[3] = Echinochloa crus-galli, 504 h, 3 weeks, read-out: Echinochloa crusgalli, activity level (growth inhibition rate)
[4] = Digitaria sanguinalis, 504 h, 3 weeks, read-out: Digitaria sanguinalis, activity level (growth inhibition rate)
[5] = 504 h, 3 weeks, read-out: Semen Euphorbiae Lathyridis, activity level (growth inhibition rate)

SMILES: CC(Oc1nc(F)c(Cl)c(N)c1Cl)C(=O)O (stereo not drawn) [reference compound]
- inhibition at 200 g/ha (Echinochloa crusgalli; [3]): 20 to 40%
- inhibition at 200 g/ha (Digitaria sanguinalis; [4]): 40 to 60%
- rice, activity level (growth inhibition rate) (rice; 200 g a.i./ha): 2 (Level 2: the growth inhibition rate is equal to or greater than 20% and less than 40%)
- inhibition at 200 g/ha [1, 5]: 40 to 60%

SMILES: C[C@H](Oc1nc(Cl)c(Cl)c(N)c1Cl)C(=O)O [reference compound]
- inhibition at 200 g/ha (Echinochloa crusgalli; [3]): 5 to 20%
- inhibition at 200 g/ha (Digitaria sanguinalis; [4]): 5 to 20%
- inhibition at 200 g/ha [1, 5]: 5 to 20%

SMILES: COC(=O)[C@@H](C)Oc1ncc(Cl)c(N)c1Cl [Compound 2-30]
- Echinochloa crusgalli, activity level (growth inhibition rate) (Echinochloa crusgalli; 3 weeks): 4 (Level 4: the growth inhibition rate is equal to or greater than 60% and less than 85%)
- Activity level (growth inhibition rate), Echinochloa crusgalli (Echinochloa crusgalli): 5 (Level 5: the growth inhibition rate is greater than 85%)
- Digitaria sanguinalis, activity level (growth inhibition rate) (Digitaria sanguinalis; 3 weeks): 5 (Level 5: the growth inhibition rate is greater than 85%)
- Activity level (growth inhibition rate), Digitaria sanguinalis (Digitaria sanguinalis): 5 (Level 5: the growth inhibition rate is greater than 85%)
- Semen Euphorbiae Lathyridis, activity level (growth inhibition rate) ([1]; 3 weeks): 4 (Level 4: the growth inhibition rate is equal to or greater than 60% and less than 85%)
- Activity level (growth inhibition rate), Abutilon theophrasti Medic. [2]: 5 (Level 5: the growth inhibition rate is greater than 85%)
- Activity level (growth inhibition rate), Galium aparine [2]: 5 (Level 5: the growth inhibition rate is greater than 85%)
- Activity level (growth inhibition rate), Monochoria Vaginalis [2]: 5 (Level 5: the growth inhibition rate is greater than 85%)

SMILES: CCOC(=O)[C@H](C)Oc1nc(F)c(Cl)c(N)c1Cl [reference compound]
- inhibition at 200 g/ha (Echinochloa crusgalli; [3]): 5 to 20%
- inhibition at 200 g/ha (Digitaria sanguinalis; [4]): 5 to 20%
- inhibition at 200 g/ha [1, 5]: 5 to 20%

SMILES: CC(Oc1nc(F)c(Cl)c(N)c1Cl)C(=O)OCC1CCCO1 (stereo not drawn) [drawing 482, reference compound]
- inhibition at 200 g/ha (Echinochloa crusgalli; [3]): 40 to 60%
- rice, activity level (growth inhibition rate) (rice; 200 g a.i./ha): 0 (Level 0: the growth inhibition rate is less than 5%)

SMILES: COc1cc(OC)nc(Oc2cccc(Oc3nc(OC)cc(OC)n3)c2C(=O)O)n1 [bispyribac-sodium, reference compound]
- inhibition at 100 g/ha (Echinochloa crusgalli; Echinochloa crus-galli, 504 h, 100 g a.i./ha, 3 weeks, resistant weed, read-out: Echinochloa crusgalli, activity level (growth inhibition rate)): 5 to 20%
- inhibition at 100 g/ha (Digitaria sanguinalis; Digitaria sanguinalis, 504 h, 100 g a.i./ha, 3 weeks, resistant weed, read-out: Digitaria sanguinalis, activity level (growth inhibition rate)): 5 to 20%
- inhibition at 100 g/ha ([1]; 504 h, 100 g a.i./ha, 3 weeks, resistant weed, read-out: Semen Euphorbiae Lathyridis, activity level (growth inhibition rate)): < 5%

SMILES: COC(=O)C(C)Oc1ncc(Cl)c(N)c1Cl (stereo not drawn) [reference compound]
- inhibition at 200 g/ha (Echinochloa crusgalli; [3]): 20 to 40%
- inhibition at 200 g/ha (Digitaria sanguinalis; [4]): 40 to 60%
- inhibition at 200 g/ha [1, 5]: 20 to 40%

SMILES: CC(C)=NOC(=O)C(C)Oc1nc(F)c(Cl)c(N)c1Cl (stereo not drawn) [Compound 2-292]
- Echinochloa crusgalli, activity level (growth inhibition rate) (Echinochloa crusgalli; 3 weeks): 5 (Level 5: the growth inhibition rate is greater than 85%)
- Activity level (growth inhibition rate), Echinochloa crusgalli (Echinochloa crusgalli): 5 (Level 5: the growth inhibition rate is greater than 85%)
- Digitaria sanguinalis, activity level (growth inhibition rate) (Digitaria sanguinalis; 3 weeks): 5 (Level 5: the growth inhibition rate is greater than 85%)
- Activity level (growth inhibition rate), Digitaria sanguinalis (Digitaria sanguinalis): 5 (Level 5: the growth inhibition rate is greater than 85%)
- Semen Euphorbiae Lathyridis, activity level (growth inhibition rate) ([1]; 3 weeks): 5 (Level 5: the growth inhibition rate is greater than 85%)
- Activity level (growth inhibition rate), Abutilon theophrasti Medic. [2]: 5 (Level 5: the growth inhibition rate is greater than 85%)
- Activity level (growth inhibition rate), Galium aparine [2]: 5 (Level 5: the growth inhibition rate is greater than 85%)
- Activity level (growth inhibition rate), Monochoria Vaginalis [2]: 5 (Level 5: the growth inhibition rate is greater than 85%)

SMILES: CC(Oc1nc(Cl)c(Cl)c(N)c1Cl)C(=O)O (stereo not drawn) [reference compound]
- inhibition at 200 g/ha (Echinochloa crusgalli; [3]): 20 to 40%
- inhibition at 200 g/ha (Digitaria sanguinalis; [4]): 40 to 60%
- inhibition at 200 g/ha [1, 5]: 40 to 60%

SMILES: C[C@H](Oc1nc(F)c(Cl)c(N)c1Cl)C(=O)O [reference compound]
- inhibition at 200 g/ha (Echinochloa crusgalli; [3]): 5 to 20%
- inhibition at 200 g/ha (Digitaria sanguinalis; [4]): 5 to 20%
- inhibition at 200 g/ha [1, 5]: 5 to 20%

SMILES: CCOC(=O)C(C)Oc1nc(F)c(Cl)c(N)c1Cl (stereo not drawn) [reference compound]
- inhibition at 200 g/ha (Echinochloa crusgalli; [3]): 20 to 40%
- inhibition at 200 g/ha (Digitaria sanguinalis; [4]): 20 to 40%
- rice, activity level (growth inhibition rate) (rice; 200 g a.i./ha): 1 (Level 1: the growth inhibition rate is equal to or greater than 5% and less than 20%)
- inhibition at 200 g/ha [1, 5]: 40 to 60%

SMILES: CCCCOC(=O)[C@@H](C)Oc1ccc(Oc2ccc(C#N)cc2F)cc1 [cyhalofop-butyl, reference compound]
- inhibition at 300 g/ha (Echinochloa crusgalli; Echinochloa crus-galli, 504 h, read-out: Echinochloa crusgalli, activity level (growth inhibition rate)): 5 to 20%
- inhibition at 300 g/ha (Digitaria sanguinalis; Digitaria sanguinalis, 504 h, read-out: Digitaria sanguinalis, activity level (growth inhibition rate)): 5 to 20%
- rice, activity level (growth inhibition rate) (rice; 300 g a.i./ha): 0 (Level 0: the growth inhibition rate is less than 5%)
- inhibition at 300 g/ha ([1]; 504 h, read-out: Semen Euphorbiae Lathyridis, activity level (growth inhibition rate)): 5 to 20%

SMILES: CC(Oc1nc(F)c(Cl)c(N)c1Cl)C(=O)O.CN(C)CCO (stereo not drawn) [Compound 2-14]
- Activity level (growth inhibition rate), Echinochloa crusgalli (Echinochloa crusgalli): 5 (Level 5: the growth inhibition rate is greater than 85%)
- Activity level (growth inhibition rate), Digitaria sanguinalis (Digitaria sanguinalis): 5 (Level 5: the growth inhibition rate is greater than 85%)
- Activity level (growth inhibition rate), Abutilon theophrasti Medic. [2]: 5 (Level 5: the growth inhibition rate is greater than 85%)
- Activity level (growth inhibition rate), Galium aparine [2]: 5 (Level 5: the growth inhibition rate is greater than 85%)
- Activity level (growth inhibition rate), Monochoria Vaginalis [2]: 5 (Level 5: the growth inhibition rate is greater than 85%)

SMILES: CC(Oc1nc(F)c(Cl)c(N)c1Cl)C(=O)OC1CC1 (stereo not drawn) [Compound 2-263]
- Activity level (growth inhibition rate), Echinochloa crusgalli (Echinochloa crusgalli): 5 (Level 5: the growth inhibition rate is greater than 85%)
- Activity level (growth inhibition rate), Digitaria sanguinalis (Digitaria sanguinalis): 5 (Level 5: the growth inhibition rate is greater than 85%)
- Activity level (growth inhibition rate), Abutilon theophrasti Medic. [2]: 5 (Level 5: the growth inhibition rate is greater than 85%)
- Activity level (growth inhibition rate), Galium aparine [2]: 5 (Level 5: the growth inhibition rate is greater than 85%)
- Activity level (growth inhibition rate), Monochoria Vaginalis [2]: 5 (Level 5: the growth inhibition rate is greater than 85%)

SMILES: CCCCCCCCCCCCSC(=O)[C@@H](C)Oc1nc(F)c(Cl)c(N)c1Cl [Compound 2-236]
- Activity level (growth inhibition rate), Echinochloa crusgalli (Echinochloa crusgalli): 5 (Level 5: the growth inhibition rate is greater than 85%)
- Activity level (growth inhibition rate), Digitaria sanguinalis (Digitaria sanguinalis): 5 (Level 5: the growth inhibition rate is greater than 85%)
- Activity level (growth inhibition rate), Abutilon theophrasti Medic. [2]: 5 (Level 5: the growth inhibition rate is greater than 85%)
- Activity level (growth inhibition rate), Galium aparine [2]: 5 (Level 5: the growth inhibition rate is greater than 85%)
- Activity level (growth inhibition rate), Monochoria Vaginalis [2]: 5 (Level 5: the growth inhibition rate is greater than 85%)

SMILES: Cc1ccccc1OC(=O)[C@@H](C)Oc1nc(F)c(Cl)c(N)c1Cl [Compound 2-355]
- Activity level (growth inhibition rate), Echinochloa crusgalli (Echinochloa crusgalli): 5 (Level 5: the growth inhibition rate is greater than 85%)
- Activity level (growth inhibition rate), Digitaria sanguinalis (Digitaria sanguinalis): 5 (Level 5: the growth inhibition rate is greater than 85%)
- Activity level (growth inhibition rate), Abutilon theophrasti Medic. [2]: 5 (Level 5: the growth inhibition rate is greater than 85%)
- Activity level (growth inhibition rate), Galium aparine [2]: 5 (Level 5: the growth inhibition rate is greater than 85%)
- Activity level (growth inhibition rate), Monochoria Vaginalis [2]: 5 (Level 5: the growth inhibition rate is greater than 85%)

SMILES: CC(Oc1nc(F)c(Cl)c(N)c1Cl)C(=O)OCC#N (stereo not drawn) [Compound 2-267]
- Activity level (growth inhibition rate), Echinochloa crusgalli (Echinochloa crusgalli): 5 (Level 5: the growth inhibition rate is greater than 85%)
- Activity level (growth inhibition rate), Digitaria sanguinalis (Digitaria sanguinalis): 5 (Level 5: the growth inhibition rate is greater than 85%)
- Activity level (growth inhibition rate), Abutilon theophrasti Medic. [2]: 5 (Level 5: the growth inhibition rate is greater than 85%)
- Activity level (growth inhibition rate), Galium aparine [2]: 5 (Level 5: the growth inhibition rate is greater than 85%)
- Activity level (growth inhibition rate), Monochoria Vaginalis [2]: 5 (Level 5: the growth inhibition rate is greater than 85%)

SMILES: COC(=O)[C@H](C)Oc1ncc(Cl)c(N)c1Cl [reference compound]
- inhibition at 200 g/ha (Echinochloa crusgalli; [3]): < 5%
- inhibition at 200 g/ha (Digitaria sanguinalis; [4]): < 5%
- inhibition at 200 g/ha [1, 5]: < 5%

SMILES: CC(Oc1nc(F)c(Cl)c(N)c1Cl)C(=O)OCc1ccc(Cl)cc1 (stereo not drawn) [Compound 2-318]
- Activity level (growth inhibition rate), Echinochloa crusgalli (Echinochloa crusgalli): 5 (Level 5: the growth inhibition rate is greater than 85%)
- Activity level (growth inhibition rate), Digitaria sanguinalis (Digitaria sanguinalis): 5 (Level 5: the growth inhibition rate is greater than 85%)
- Activity level (growth inhibition rate), Abutilon theophrasti Medic. [2]: 5 (Level 5: the growth inhibition rate is greater than 85%)
- Activity level (growth inhibition rate), Galium aparine [2]: 5 (Level 5: the growth inhibition rate is greater than 85%)
- Activity level (growth inhibition rate), Monochoria Vaginalis [2]: 5 (Level 5: the growth inhibition rate is greater than 85%)
